{"source": "patent US20140315972A1", "about": "“RS)-2-(2-oxo-4-phenylpyrrolidin-1-yl)acetamide compound having modulatory activity with a commensurate effect, pharmaceutical substance (variants) and its application, composition (variants) thereof” (priority 2011, published 2014)", "key": {"[1]": {"assay": "Acute toxicity, single intraperitoneal injection in male mice", "format": "in vivo", "conditions": "male, white outbred, mouse, in vivo, ip, male mice 18-24 g; single i.p.", "procedure": "(§1) Tables 2, 2.1 and 2.2 present the results of acute toxicity studies of the Compounds with active substance content in at least white outbred male mice (body weight 18-24 g) and white outbred rats 30-35 days of age, of both sexes with a single dose. Calculation of toxic doses was made using the Wilcoxon and Litchfield method. Observations were made over 24 hours and 14 days after a single dose.\n(§2) LD50 in rat pups after intragastric administration was not found. Intragastric administration to rat pups of doses of more than 1000 mg/kg is technically impossible due to the small volume of the stomach (Table 2.2)."}, "rabbits": {"tested_on": "rabbits", "assay": "Transcallosal stimulation induced potential (TSIP)", "format": "in vivo", "conditions": "for effect on TSIP components (in words): 25-300 mg/kg"}, "rats": {"tested_on": "rats", "assay": "Acute toxicity, single intragastric administration in immature rats", "format": "in vivo", "conditions": "single intragastric 800 mg/kg", "procedure": "as §1, §2"}, "mice [2]": {"tested_on": "mice", "assay": "Acute toxicity, single intraperitoneal injection in male mice", "format": "in vivo", "conditions": "male mice 18-24 g; single i.p.", "procedure": "as §1, §2"}, "mice [3]": {"tested_on": "mice", "assay": "Cross maze exploratory behavior, HEF and LEF mice", "format": "in vivo", "conditions": "i.p. once a day 5 days, Compounds 1 and 4 100 mg/kg, Piracetam 200 mg/kg"}, "mice [4]": {"tested_on": "mice", "conditions": "mice; product of SU No 797219; cited from earlier work"}, "[5]": {"conditions": "Piracetam 300-500, Pyritinol 50-150, Phenotropil 25-300 mg/kg"}}, "note": "Read-outs that look alike come from different tables or passages of the source."}
{"smiles": "NC(=O)CN1CC(c2ccccc2)CC1=O", "note": "(racemic) [Compound 2, (RS)-2-(2-oxo-4-phenylpyrrolidin-1-yl)acetamide]", "values": [{"measurement": "LD50 at 14 days", "setting": "[1]", "result": 1000, "unit": "mg/kg"}, {"measurement": "effect on TSIP components (in words)", "setting": "rabbits", "result": "less pronounced than that of Compounds 1 and 3"}, {"measurement": "TSIP P1 + N1 amplitude", "setting": "rabbits; [5]", "result": "± (biphasic effect, less than 50% but not less than 20%)"}, {"measurement": "TSIP component N1 amplitude", "setting": "rabbits; [5]", "result": "± (biphasic effect, less than 50% but not less than 20%)"}, {"measurement": "TSIP component P1 amplitude", "setting": "rabbits; [5]", "result": "± (biphasic effect, less than 50% but not less than 20%)"}, {"measurement": "TSIP component P2 amplitude", "setting": "rabbits; [5]", "result": "± (biphasic effect, less than 50% but not less than 20%)"}]}
{"smiles": "NC(=O)CN1CC(c2ccccc2)CC1=O", "note": "(racemic) [Compound 3, (RS)-2-(2-oxo-4-phenylpyrrolidin-1-yl)acetamide]", "values": [{"measurement": "Dead/total number", "setting": "rats; rats 30-35 days", "result": "0/10"}, {"measurement": "% of dead rat pups", "setting": "rats", "result": 0, "unit": "%"}, {"measurement": "LD50", "setting": "mice [2]", "result": "1050 (984.6-1115.3) mg/kg"}]}
{"smiles": "NC(=O)CN1CC(c2ccccc2)CC1=O", "note": "(racemic) [Compound 4, (RS)-2-(2-oxo-4-phenylpyrrolidin-1-yl)acetamide]", "values": [{"measurement": "Kt (trigger transmission coefficient)", "setting": "mice [3]; HEF mice", "result": "3.9 ± 0.45"}, {"measurement": "Number of compartment explorations", "setting": "mice [3]; HEF mice", "result": "6.5 ± 0.7 //"}, {"measurement": "Number of surveillances", "setting": "mice [3]; HEF mice", "result": "1.6 ± 0.2"}, {"measurement": "Kt (trigger transmission coefficient)", "setting": "mice [3]; LEF mice", "result": "3.9 ± 0.4"}, {"measurement": "Number of compartment explorations", "setting": "mice [3]; LEF mice", "result": "7.0 ± 0.6 //"}, {"measurement": "Number of surveillances", "setting": "mice [3]; LEF mice", "result": "1.8 ± 0.2"}, {"measurement": "Kt (trigger transmission coefficient)", "setting": "mice [3]; population as a whole", "result": "3.9 ± 0.45"}, {"measurement": "Number of compartment explorations", "setting": "mice [3]; population as a whole", "result": "6.7 ± 0.7 //"}, {"measurement": "Number of surveillances", "setting": "mice [3]; population as a whole", "result": "1.7 ± 0.2"}, {"measurement": "LD50", "setting": "mice [2]", "result": 904, "unit": "mg/kg"}, {"measurement": "effect on TSIP components (in words)", "setting": "rabbits", "result": "no significant difference from the saline treated control"}]}
{"smiles": "NC(=O)CN1CC(c2ccccc2)CC1=O", "note": "(stereo not drawn) [N-carbamoylmethyl-4-phenyl-2-pyrrolidone, reference compound]", "values": [{"measurement": "LD50", "setting": "mice [4]", "result": 831, "unit": "mg/kg"}]}
